Results published in US11986446B2, “Method of administration of gamma hydroxybutyrate with monocarboxylate transporters” (priority 2013, dated 2024).
Read-outs that look alike come from different tables or passages of the source.

Key:
[1] = tested on: healthy subjects
[2] = tested on: healthy adults; test: Ibuprofen combined with Xyrem, PD (KSS and CDR System tasks); assay type: in vivo, human
Method: The effects of Ibuprofen were evaluated when combined with Xyrem® in a manner similar to the above. […] However, it was observed that renal excretion of Xyrem® doubled upon concomitant administration of Ibuprofen and Xyrem®.

[3] = Ibuprofen combined with Xyrem, pharmacokinetics of GHB
[4] = healthy volunteers; 12.5, 25, and 50 mg/kg; cited from earlier work
[5] = Phase 1 crossover study of Xyrem with and without divalproex sodium, pharmacokinetics of GHB; assay type: in vivo, human
From the text: This study is designed to compare the pharmacokinetic (PK) and pharmacodynamic (PD) endpoints of Xyrem® with and without co-administration of divalproex sodium extended-release tablets. The crossover design allows within-subject comparisons of the PK and PD of Xyrem® dosed alone and in combination with divalproex sodium extended-release tablets. PD parameters include the following: Cognitive Drug Research (CDR) System tasks: Karolinska Sleepiness Scale (KSS), Simple Reaction Time (SRT), Digit Vigilance (DV), Choice Reaction Time (CRT), Tracking and Numeric Working Memory (NWM).
This was a Phase 1, randomized, double-blind, placebo-controlled, five-period, crossover study in healthy male subjects. The study was conducted in approximately 24 healthy subjects to ensure completion of 16 subjects. Following Screening and Baseline procedures, eligible subjects were randomized to receive Xyrem® and Xyrem® placebo in a crossover fashion in Periods 1 and 2; were dosed with divalproex sodium extended-release tablets for 10 consecutive days in Period 3; and while continuing to take divalproex sodium extended-release tablets, were randomized to receive Xyrem® and Xyrem® placebo in a crossover fashion in Periods 4 and 5 (Table 1).
Subjects were randomized to receive two 3 g doses of Xyrem® or Xyrem® placebo 4 hours apart in a crossover fashion at approximately 9 AM (first dose) and 1 PM (second dose) on Days 1 and 3. PK and PD parameters were evaluated during the 24 hours postdose.
Blood samples (4 mL) for sodium oxybate concentrations were collected at predose and at specified time-points up to 12 hours after the first dose of Xyrem® or Xyrem® placebo on Days 1 and 3. A PD Battery including the Karolinska Sleepiness Scale, Simple Reaction Time task, Digit Vigilance task, Choice Reaction Time task, Tracking task, and Numeric Working Memory task was administered at planned timepoints up to X hours after first dose (X hours after second dose), and safety were monitored at specified timepoints on Days 1 and 3 as well as throughout the periods.
All subjects received divalproex sodium extended-release tablets 1250 mg at approximately 8 AM on Days 5 through 14. Blood samples (4 mL) for valproic acid concentrations were collected before the divalproex sodium dose (to determine trough concentration for assessment of steady state) on Days 13 and 14. Safety was monitored at specified timepoints as well as throughout the period.
Subjects continued taking 1250 mg divalproex sodium extended-release tablets at approximately 8 AM on Days 15 through 18. Subjects were also randomized to receive two 3 g doses of Xyrem® or Xyrem® placebo in a crossover fashion at approximately 9 am (first dose) and 1 pm (second dose) on Days 15 and 18. The first dose of Xyrem® or Xyrem® placebo was taken approximately 1 hour after dosing with divalproex sodium extended-release tablets, and the second dose of Xyrem® or Xyrem® placebo was taken 4 hours after the first Xyrem®/Xyrem® placebo dose.
Blood samples (4 mL) to measure plasma sodium oxybate concentrations were collected at pre Xyrem®/Xyrem® placebo dose and at specified timepoints after the first Xyrem® or Xyrem® placebo dose on Days 15 and 18. Blood samples (4 mL) to measure plasma valproic acid concentrations were collected pre divalproex sodium dose and at specified timepoints after the dose of divalproex sodium extended-release tablets on Day 15 and 18. […]

[6] = tested on: healthy male subjects; assay type: in vivo, human
[7] = alcohol dependent patients, oral administration; cited from earlier work
[8] = GHB and divalproate concomitantly administered, statistically significant
[9] = GHB co-administered with valproate, attributed to GHB dehydrogenase inhibition

## O=C(O)Cc1ccccc1Nc1c(Cl)cccc1Cl [diclofenac, 2-(2,6-dichloranilino) phenylacetic acid]
[1]; co-dosed with Xyrem, during the hour after the first dose of Xyrem
  effect of diclofenac on the effects of Xyrem on Power of Attention, simple and choice reaction time: significantly reduced the effects of the compound
[1]; diclofenac alone (50 mg qid + Xyrem placebo)
  effect on sleepiness or cognitive function: no effect on sleepiness or cognitive function
[1]; diclofenac co-dosed with Xyrem
  interaction on feelings of sleepiness: no interaction
  protective effect on subjects ratings of alertness: not seen
[1]; diclofenac co-dosed with Xyrem vs Xyrem alone
  impairments (interaction) over the hour following the first dose of Xyrem: impairments being notably smaller
[1]; in vivo
  greater cognitive impairment or sleepiness on any measure: no evidence on any measure of greater cognitive impairment or sleepiness

## CC(C)Cc1ccc(C(C)C(=O)O)cc1 (centres unmarked) [Ibuprofen, iso-butyl-propanoic-phenolic acid]
[2]
  Karolinska Sleepiness Scale, Simple Reaction Time, Digit Vigilance, Choice Reaction Time, Tracking and Numeric Working Memory: No differences were seen

## O=C(O)CCCO [Xyrem®, sodium oxybate]
[3]; GHB concomitantly administered with ibuprofen, statistically significant
  plasma levels, lower: ~5%
[3]; concomitant administration of ibuprofen
  renal excretion of GHB: doubled
[1]; GHB and diclofenac concomitantly administered
  PD effects: significantly reduced
[1]; Xyrem co-dosed with diclofenac vs Xyrem alone, at 1 and 2.5 h
  Digit Vigilance Accuracy, change from baseline: significantly less impairment than Xyrem® alone
[1]; Xyrem co-dosed with diclofenac vs Xyrem alone, at 1 and 4.5 h
  Power of Attention, change from baseline: narrowly missed significance
[1]; Xyrem co-dosed with diclofenac vs Xyrem alone, at 0.5 h
  Power of Attention, change from baseline: significantly less impairment than Xyrem® alone
[1]; Xyrem co-dosed with diclofenac vs diclofenac alone, 6.5 h and 8 h
  Power of Attention, change from baseline: impairments at two timepoints compared to diclofenac alone which at 6.5 h was significant and a trend at 8 h
[1]; in vivo
  Choice Reaction Time Mean, impairments: significantly smaller than with Xyrem® alone
  Digit Vigilance Mean Reaction Time, change from baseline: significantly less impairment than Xyrem® alone
[4]
  oral absorption and elimination processes, dose dependency: capacity-limited though the degree of dose dependency was moderate
[5]; [8]
  renal clearance, increased: 30%
  systemic exposure (plasma AUC), increased: 26%
[5]; [9]
  AUC, increase: about 15%
  Cmax, increase: about 15%
[5]; upon co-administration of valproate
  renal excretion of GHB, increase: 30%
[6]; GHB and divalproate concomitantly administered
  PD effects: more pronounced effects with concomitant administration
[6]; Xyrem alone, two 3 g doses, healthy volunteers
  sleepiness, attention, working memory and tracking task performance: induces sleepiness and produces impairments to attention, working memory and performance on a tracking task
[6]; Xyrem and divalproex sodium together (A+C) vs Xyrem alone (A), at 4 and 8 hours
  Tracking Distance from Target, change from baseline: statistically significant difference by a slightly delayed recovery for the combination
[6]; Xyrem and divalproex sodium together (A+C) vs Xyrem alone (A), at 4.5 through 8 hours
  Numeric Working Memory Sensitivity Index, change from baseline: showed a difference
[6]; Xyrem and divalproex sodium together (A+C) vs Xyrem alone (A), at 4 hours and 8 hours
  Continuity of Attention, change from baseline: slightly delayed recovery for the combination
[6]; Xyrem and divalproex sodium together vs Xyrem alone, at 2.5 and 4 hours
  Digit Vigilance Accuracy, change from baseline: statistically reliably different greater impairment to Xyrem® alone
[6]; Xyrem dosed with divalproex sodium vs divalproex sodium alone (compared with Xyrem vs its placebo)
  impairments over time: more consistent statistically significant impairments over time were seen with the combination
[6]; co-administration of Xyrem and divalproex vs Xyrem alone
  impairments to cognitive function and sleepiness: greater impairments to cognitive function and sleepiness than were seen with Xyrem® alone
[6]; in vivo
  Numeric Working Memory Mean Reaction Time, change from baseline: statistically significant differences at 2.5, 5 and 8 hours when the combination produced greater impairment
  Simple Reaction Time Mean, change from baseline: statistically reliably greater impairments than Xyrem® alone
[7]
  absorption into and elimination from the systemic circulation: fast processes
  unchanged drug recovered in the urine: Virtually no unchanged drug could be recovered in the urine

## CCCC(CCC)C(=O)O [Divalproex sodium, 2-propylvaleric acid]
[6]; in vivo
  effects on cognitive function or sleepiness: no consistent or notable effects on cognitive function or sleepiness
